Where two headings read alike, the source gives them in different places.
Columns and labels:
SARS-CoV-2 = assay: microbe, parasite or virus in culture; format: cell-based; conditions: Severe acute respiratory syndrome coronavirus 2, 48 h; read-out: SARS-CoV-2 (2-day) EC50
[1] = A549 cytotoxicity analysis (CellTiter-Glo); format: cell-based; conditions: human
Procedure: The cytotoxicity of compounds was determined in A549 cells in the following manner. Compounds (200 nL) were spotted onto 384-well Grenier plates prior to seeding 5000 A549 cells/well in a volume of 40 μL culture medium. The plates were incubated at 37° C. for 48 hours with 5% CO2. On day 2, 40 μL of CellTiter-Glo (Promega) was added and mixed 5 times. Plates were read for luminescence on an Envision (PerkinElmer) and the CC50 (compound concentration for reducing 50% of luminescence signal as a measure of cell viability) were calculated using a nonlinear regression model (four parameters).

2019-nCoV = assay: Intravenous Compound 32 against 2019-nCoV in rhesus monkeys; format: in vivo; conditions: 10 mg/kg IV once daily, vs vehicle
[2] = A549 cells, 48 hours, CellTiter-Glo, read-out: A549 Cytotoxicity (2-day) CC50

Structure (SMILES)	EC50 (SARS-CoV-2) [nM]	CC50 at 48 h [1] [nM]	CC50 at 48 h [1, 2] [nM]	cumulative clinical scores (2019-nCoV)	disease symptoms (2019-nCoV)
N#C[C@@]1(c2ccc3c(N)ncnn23)O[C@H](CO)[C@@H](O)[C@H]1O	869 ± 289	> 50000			
CCC(CC)COC(=O)[C@H](C)N[P@@](=O)(OC[C@H]1O[C@@](C#N)(c2ccc3c(N)ncnn23)[C@H](O)[C@@H]1O)Oc1ccccc1	272 ± 75		17700		
CCC(CC)COC(=O)[C@H](C)N[P@](=O)(OC[C@H]1O[C@@](C#N)(c2ccc3c(N)ncnn23)[C@H](O)[C@@H]1O)Oc1ccccc1 [Compound 32, (S)-2-ethylbutyl 2-(((S)-(((2R,3S,4R,5R)-5-(4-aminopyrrolo[2,1-f][1,2,4]triazin-7-yl)-5-cyano-3,4-dihydroxytetrahydrofuran-2-yl)methoxy)(phenoxy)phosphoryl)amino)propanoate]				notably higher in vehicle-treated animals	less pronounced
CCC(CC)COC(=O)[C@H](C)N[P@](=O)(OC[C@H]1O[C@@](C#N)(c2ccc3c(N)ncnn23)[C@H](O)[C@@H]1O)Oc1ccccc1 [drawing 141]	135 ± 20		> 25200		
